According to article PMC9230590, “Pharmacokinetics and Tissue Distribution of Enavogliflozin in Mice and Rats” (Pharmaceutics, 2022):
Several values for one entry are separate records, joined by “and”; a condition that tells them apart may be missing. Identical values can stand only once. Like-named read-outs stand apart in the source and are kept apart here.

Key:
[1] = Pharmacokinetics after intravenous injection in mice; type: in vivo, ICR mice; conditions: for AUC(0-inf) / AUC(0-t) / half-life / MRT / clearance / Vd: ICR, mouse; for AUC(0-inf) / AUC(0-t) / half-life / MRT / clearance / Vd / Co: plasma; for AUC∞/D / Co/D: dose normalized
Experimental: Fifty-four ICR mice were randomly divided into nine groups (n = 6 per group; Table 1) and intravenously administered an enavogliflozin solution at doses of 0.3, 1, and 3 mg/kg. The drug was dissolved in a mixture of 10% DMSO and 90% saline and injected via the tail vein. Before blood sampling, mice were anesthetized for 5 min using 2% isoflurane in a vaporizer with an oxygen flow of 0.8 L/min. Blood sampling used a sparse sampling method via the right or left retro-orbital vein using heparinized capillary tubes (Heinz Herenz, Hamburg, Germany). Final blood was collected from the abdominal artery using a heparin-treated 1 mL syringe (Jung Lim Co. Ltd., Choong-Buk, Korea) under isoflurane anesthesia (Table 1). Blood samples were collected at 0, 0.083, 0.25, 0.5, 1, 2, 4, 8, and 24 h and centrifuged at 12,000× g for 1 min to separate plasma. An aliquot (30 µL) of each plasma sample was stored at −80 °C until enavogliflozin analysis.
(§1) Concentrations of enavogliflozin in plasma and tissue homogenate samples were analyzed using an Agilent 6430 triple quadrupole liquid chromatography-mass spectrometry (LC–MS/MS) system (Agilent, Wilmington, DE, USA) following a previously published method.
The data were expressed as the means ± standard deviation for the groups. Pharmacokinetic parameters, such as the area under the plasma concentration–time curve during the period of observation (AUClast), AUC to infinite time (AUC∞), clearance (CL), and volume of distribution at steady-state (Vd,ss), the terminal half-life (t1/2), and mean residence time (MRT) were calculated using non-compartment analysis with WinNonlin software (version 5.1; Pharsights, Cary, NC, USA). The AUC ratios were calculated by dividing the AUClast of enavogliflozin in the tissue samples by the plasma AUClast values of enavogliflozin [15].

[2] = Recovery from urine and feces over 72 h in mice; type: in vivo, ICR mice; conditions: for Recovery, Feces / Recovery, Urine: parent form
Experimental: Three mice received enavogliflozin (1 mg/kg) intravenously and were returned to metabolic cages with food and water ad libitum and urine and feces samples were collected every 24 h for 72 h. Urine and feces were weighed, and 30 µL aliquots of urine and 50 µL aliquots of 10% feces homogenates were stored at −80 °C until enavogliflozin analysis. Four mice received enavogliflozin (1 mg/kg) by oral gavage and were returned to their metabolic cages to collect urine and feces samples every 24 h for 72 h with the same protocols described above.
as §1
(§2) Aliquots of plasma or urine (30 µL each) and tissue homogenate (50 µL each) were added to 100 µL of aqueous solution of d4-enavogliflozin (IS, 20 ng/mL), and vigorously mixed with 500 µL MTBE for 15 min. After centrifugation at 16,000× g for 5 min, samples were kept for 1 h, at a temperature of −80 °C to freeze the aqueous layer freeze. The organic upper layer was then transferred to a clean tube and evaporated to dryness under a gentle stream of nitrogen. The dried extract was reconstituted in 150 µL of mobile phase, and a 3 µL aliquot was injected into the LC–MS/MS system. Enavogliflozin was separated on a Synergi Polar RP column (2.0 × 150 mm, 4 µm particle size; Phenomenex, Torrence, CA, USA) using a isocratic mobile phase consisting of water (15%) and methanol (85%) containing 0.1% formic acid at a flow rate of 0.25 mL/min.

[3] = Recovery from urine and feces over 72 h in rats; type: in vivo, Sprague Dawley (SD) rats; conditions: for Recovery, Feces / Recovery, Urine: parent form
Experimental: Three rats received enavogliflozin (1 mg/kg) intravenously and were returned to metabolic cages with food and water ad libitum and urine and feces samples were collected every 24 h for 72 h. Four rats received enavogliflozin (1 mg/kg) by oral gavage and were returned to their metabolic cages to collect urine and feces samples every 24 h for 72 h with the same protocols described above.
as §1, §2

SGLT1 = tested on: SGLT1; design: method as in PMID 32183468; conditions: cited from earlier work
[4] = design: method as in PMID 32183468; conditions: mice; cited from earlier work
hepatocytes [5] = tested on: hepatocytes; design: method as in PMID 32932946; conditions: mouse hepatocytes; cited from earlier work
hepatocytes [6] = tested on: hepatocytes; design: method as in PMID 32932946; conditions: dog hepatocytes; cited from earlier work
hepatocytes [7] = tested on: hepatocytes; design: method as in PMID 32932946; conditions: human cells (hepatocytes); cited from earlier work

Q: Which AUC(0-inf) ([1]; IV 0.3 mg/kg) does the source give for `OC[C@H]1O[C@@H](c2cc(Cc3ccc(C4CC4)cc3)c(Cl)c3c2CCO3)[C@H](O)[C@@H](O)[C@@H]1O` [enavogliflozin, (2S,3R,4R,5S,6R)-2-(7-chloro-6-(4-cyclopropylbenzyl) -2,3-dihydrobenzofuran-4-yl)-6-(hydroxymethyl)tetrahydro-2H-pyran-3,4,5-triol] here?
A: The AUC(0-inf) was 512 ± 30.7 ng·h/mL.

Q: What about the AUC(0-t) ([1]; IV 0.3 mg/kg) of the same molecule?
A: Its AUC(0-t) is 479 ± 33.6 ng·h/mL.

Q: And the half-life ([1]; IV 0.3 mg/kg)?
A: The half-life was 6 ± 1.3 h.

Q: And the AUC(0-inf) ([1]; IV 1 mg/kg)?
A: The AUC(0-inf) was 1630 ± 336 ng·h/mL.

Q: What about the AUC(0-t) ([1]; IV 1 mg/kg) of the same molecule?
A: The AUC(0-t) was 1510 ± 282 ng·h/mL.

Q: And the half-life ([1]; IV 1 mg/kg)?
A: Its half-life is 6.5 ± 1.4 h.

Q: And the AUC(0-inf) ([1]; IV 3 mg/kg)?
A: Its AUC(0-inf) is 5080 ± 1060 ng·h/mL.

Q: And the AUC(0-t) ([1]; IV 3 mg/kg)?
A: Its AUC(0-t) is 4660 ± 998 ng·h/mL.

Q: What about the half-life ([1]; IV 3 mg/kg) of the same molecule?
A: The half-life was 6.6 ± 0.5 h.

Q: And the MRT ([1]; IV 0.3 mg/kg)?
A: Its MRT is 5.2 ± 0.4 h.

Q: And the clearance ([1]; IV 0.3 mg/kg, read-out: CL)?
A: The clearance was 9.8 ± 0.6 mL/min/kg.

Q: And the Vd ([1]; IV 0.3 mg/kg, read-out: Vd,ss)?
A: Its Vd is 3.1 ± 0.3 L/kg.

Q: And the MRT ([1]; IV 1 mg/kg)?
A: Its MRT is 4.9 ± 0.5 h.

Q: And the clearance ([1]; IV 1 mg/kg, read-out: CL)?
A: Its clearance is 10.7 ± 2.5 mL/min/kg.

Q: What about the Vd ([1]; IV 1 mg/kg, read-out: Vd,ss) of the same molecule?
A: The Vd was 3.1 ± 0.6 L/kg.

Q: And the MRT ([1]; IV 3 mg/kg)?
A: The MRT was 5.2 ± 0.8 h.

Q: And the clearance ([1]; IV 3 mg/kg, read-out: CL)?
A: The clearance was 10.2 ± 2.1 mL/min/kg.

Q: What about the Vd ([1]; IV 3 mg/kg, read-out: Vd,ss) of the same molecule?
A: Its Vd is 3.2 ± 0.5 L/kg.

Q: What about the clearance ([1]; IV 0.3–3 mg/kg, all doses together, read-out: Systemic clearance) of the same molecule?
A: The clearance was 10.1 ± 1.59 mL/min/kg.

Q: What about the Vd ([1]; IV, range over doses 0.3–3 mg/kg, read-out: steady-state volume of distribution (Vd,ss)) of the same molecule?
A: Its Vd is 3.1 to 3.2 L/kg.

Q: And the “AUC∞/D” value ([1]; IV 0.3 mg/kg)?
A: Its value is 1706.8 ± 102.3.

Q: And the Co/D ([1]; IV 0.3 mg/kg)?
A: The Co/D was 416.8 ± 31.3.

Q: And the Co ([1]; IV 0.3 mg/kg)?
A: The Co was 125.0 ± 9.4 ng/mL.

Q: What about the “AUC∞/D” value ([1]; IV 1 mg/kg) of the same molecule?
A: Its value is 1626.7 ± 335.6.

Q: What about the Co/D ([1]; IV 1 mg/kg) of the same molecule?
A: The Co/D was 408.6 ± 103.2.

Q: What about the Co ([1]; IV 1 mg/kg) of the same molecule?
A: The Co was 408.6 ± 103.2 ng/mL.

Q: And the “AUC∞/D” value ([1]; IV 3 mg/kg)?
A: Its value is 1694.3 ± 354.5.

Q: What about the Co/D ([1]; IV 3 mg/kg) of the same molecule?
A: Its Co/D is 424.7 ± 62.2.

Q: And the Co ([1]; IV 3 mg/kg)?
A: Its Co is 1274.1 ± 186.6 ng/mL.

Q: What about the “Recovery in feces relative to urine” value ([2]; 1 mg/kg IV) of the same molecule?
A: Its value is “about 6 fold”.

Q: And the “Recovery, Feces” value ([2]; 1 mg/kg IV, 0–24 h, 1 mg/kg)?
A: Its value is 36.3 % of Dose and 36.3 ± 3.6 % of Dose.

Q: And the “Recovery, Urine” value ([2]; 1 mg/kg IV, 0–24 h, 1 mg/kg)?
A: The value was 6.3 % of Dose and 6.3 ± 0.8 % of Dose.

Q: And the “Recovery, Feces” value ([2]; 1 mg/kg IV, 0–72 h, 1 mg/kg)?
A: Its value is 39.3 ± 3.5 % of Dose and 39.3 % of Dose.

Q: What about the “Recovery, Urine” value ([2]; 1 mg/kg IV, 0–72 h, 1 mg/kg) of the same molecule?
A: Its value is 6.6 ± 0.7 % of Dose and 6.6 % of Dose.

Q: What about the “Recovery, Feces” value ([2]; 1 mg/kg IV, 24–48 h) of the same molecule?
A: The value was 2.7 ± 1.3 % of Dose.

Q: What about the “Recovery, Urine” value ([2]; 1 mg/kg IV, 24–48 h) of the same molecule?
A: The value was 0.1 ± 0.0 % of Dose.

Q: And the “Recovery, Feces” value ([2]; 1 mg/kg IV, 48–72 h)?
A: Its value is 0.4 ± 0.1 % of Dose.

Q: And the “Recovery, Feces” value ([2]; 1 mg/kg PO, 0–24 h)?
A: The value was 50.6 ± 11.1 % of Dose.

Q: And the “Recovery, Urine” value ([2]; 1 mg/kg PO, 0–24 h)?
A: Its value is 6.6 ± 0.6 % of Dose.

Q: What about the “Recovery, Urine” value ([2]; 1 mg/kg PO, 0–72 h) of the same molecule?
A: The value was 6.8 ± 0.6 % of Dose.

Q: And the “Recovery, Feces” value ([2]; 1 mg/kg PO, 0–72 h, 1 mg/kg)?
A: The value was 51.4 % of Dose and 51.4 ± 11.5 % of Dose.

Q: What about the “Recovery, Feces” value ([2]; 1 mg/kg PO, 24–48 h) of the same molecule?
A: Its value is 0.72 ± 0.4 % of Dose.

Q: And the “Recovery, Urine” value ([2]; 1 mg/kg PO, 24–48 h)?
A: Its value is 0.1 ± 0.0 % of Dose.

Q: And the “Recovery, Feces” value ([2]; 1 mg/kg PO, 48–72 h)?
A: The value was 0.2 ± 0.1 % of Dose.

Q: What about the dose excreted ([2]; ICR, mouse, urine and feces, 1 mg/kg IV, 72 h, read-out: total recovery (feces + urine)) of the same molecule?
A: The dose excreted was roughly 46%.

Q: And the “Recovery in feces relative to urine” value ([3]; 1 mg/kg IV)?
A: The value was “about 22.7 fold”.

Q: What about the “Recovery, Feces” value ([3]; 1 mg/kg IV, 0–24 h) of the same molecule?
A: Its value is 15.2 ± 6.2 % of Dose.

Q: What about the “Recovery, Feces” value ([3]; 1 mg/kg IV, 0–72 h, 1 mg/kg) of the same molecule?
A: The value was 15.9 ± 5.9 % of Dose and 15.9 % of Dose.

Q: And the “Recovery, Urine” value ([3]; 1 mg/kg IV, 0–72 h, 1 mg/kg)?
A: Its value is 0.7 ± 0.2 % of Dose and 0.7 % of Dose.

Q: What about the “Recovery, Feces” value ([3]; 1 mg/kg IV, 24–48 h) of the same molecule?
A: Its value is 0.7 ± 0.8 % of Dose.

Q: What about the “Recovery, Urine” value ([3]; 1 mg/kg IV, 24–48 h) of the same molecule?
A: Its value is 0.1 ± 0.0 % of Dose.

Q: What about the “Recovery, Feces” value ([3]; 1 mg/kg PO, 0–24 h) of the same molecule?
A: The value was 44.5 ± 11.8 % of Dose.

Q: What about the “Recovery, Urine” value ([3]; 1 mg/kg PO, 0–24 h) of the same molecule?
A: Its value is 0.3 ± 0.1 % of Dose.

Q: What about the “Recovery, Urine” value ([3]; 1 mg/kg PO, 0–72 h) of the same molecule?
A: Its value is 0.3 ± 0.1 % of Dose.

Q: And the “Recovery, Feces” value ([3]; 1 mg/kg PO, 0–72 h, 1 mg/kg)?
A: The value was 45.5 % of Dose.

Q: And the “Recovery, Feces” value ([3]; 1 mg/kg PO, 24–48 h)?
A: The value was 0.9 ± 0.4 % of Dose.

Q: And the “Recovery, Feces” value ([3]; 1 mg/kg PO, 48–72 h)?
A: The value was 0.2 ± 0.0 % of Dose.

Q: And the “Recovery, Urine” value ([3]; 1 mg/kg PO, 48–72 h)?
A: Its value is 0.3 ± 0.1 % of Dose.

Q: And the dose excreted ([3]; Sprague-Dawley, rat, urine and feces, 1 mg/kg IV, 72 h, read-out: total recovery (feces + urine))?
A: The dose excreted was roughly 16.6%.

Q: And the IC50 (SGLT1)?
A: The IC50 was 549 ± 140 nM.

Q: And the “ratio of AUC in kidney to AUC in plasma” value [4]?
A: The value was 85.0 ± 16.1.

Q: And the “In vitro hepatic clearance” value (hepatocytes [5])?
A: The value was 36.5 mL/min/kg.

Q: What about the “In vitro hepatic clearance” value (hepatocytes [6]) of the same molecule?
A: Its value is 17.9 mL/min/kg.

Q: What about the “In vitro hepatic clearance” value (hepatocytes [7]) of the same molecule?
A: The value was 4.5 mL/min/kg.
